The values that follow come from patent publication US10913746B2, “Substituted 4-phenylpiperidines, their preparation and use” (The Trustees of Columbia University in the City of New York, priority 2014, dated 2021).

Test [1] relates to Abca4−/− mouse model. The experiment in a line: Bisretinoid accumulation in Abca4−/− mouse model. The format is in vivo. Conditions: Example 112, present tense; 25 mg/kg for 12 weeks, mice starting at 17 weeks old. Here is the method: (§1) Abca4−/− mice have A2E levels in the ˜15-19 pmoles/eye range at 17 weeks old. Mice, starting at 17 weeks old, were treated with 25 mg/kg of Compound 81 for 12 weeks.

Test [2] deals with serum RBP4 (Mus musculus (Mouse), UniProt Q00724). The experiment in a line: Serum RBP4 levels in Abca4−/− mice. Conditions: Example 112, present tense; 25 mg/kg for 12 weeks, mice starting at 17 weeks old. The format is in vivo. The procedure:
as §1

For test [3], the target named is RBP4 (Homo sapiens (Human), UniProt P02753). To be noted: cited from earlier work.
The test system of test [4] is subject afflicted with AMD or Stargardt disease. The test can be described thus: Administration to the eye of a subject afflicted with AMD or Stargardt disease. Type of test: in vivo. To be noted: Example 113, present tense; administered to the eye. The procedure:
An amount of a compound 81 is administered to the eye of a subject afflicted with AMD.
An amount of a compound 81 is administered to the eye of a subject afflicted with Stargardt disease.

Where a name gives a salt, the structure may show the parent alone.

Turning to `O=C(c1n[nH]c2c1CNC2)N1CCC(c2ccc(F)c(F)c2C(F)(F)F)CC1` [Compound 38, (4-(3,4-Difluoro-2-(trifluoromethyl)phenyl)piperidin-1-yl)(1,4,5,6-tetrahydropyrrolo[3,4-c]pyrazol-3-yl)methanone Hydrochloride], in test [1], the “bisretinoid accumulation in Abca4−/− mouse model” value (“bisretinoid accumulation” for short) is “inhibit bisretinoid accumulation”. For the same molecule, the “serum RBP4 reduction” value in test [2] is listed as “significant serum RBP4 reduction”. With `CC1=C(/C=C/C(C)=C/C=C/C(C)=C/C(=O)Nc2ccc(O)cc2)C(C)(C)CCC1` [fenretinide, N-(4-hydroxy-phenyl)retinamide], in test [3], the “binding to RBP4, displacement of all-trans retinol” value is reported as “bind to RBP4”. In the case of `O=C(c1n[nH]c2c1CNCC2)N1CCC(c2cccc(F)c2Cl)CC1` [Compound 42, (4-(2-Chloro-3-fluorophenyl)piperidin-1-yl)(4,5,6,7-tetrahydro-1Hpyrazolo[4,3-c]pyridin-3-yl)methanone Hydrochloride], the “bisretinoid accumulation” value in test [1] is “inhibit bisretinoid accumulation”. Also, in test [2], the “serum RBP4 reduction” value is recorded as “significant serum RBP4 reduction”. Turning to `O=C(c1n[nH]c2c1CCNC2)N1CCC(c2cccc(F)c2Cl)CC1` [Compound 40, (4-(2-Chloro-3-fluorophenyl)piperidin-1-yl)(4,5,6,7-tetrahydro-1Hpyrazolo[3,4-c]pyridin-3-yl)methanone Hydrochloride], the “bisretinoid accumulation” value in test [1] was “inhibit bisretinoid accumulation”. Also, the “serum RBP4 reduction” value in test [2] is recorded as “significant serum RBP4 reduction”. `CC(=O)N1CCc2c(C(=O)N3CCC(c4ccc(F)c(F)c4C(F)(F)F)CC3)n[nH]c2C1` [Compound 81, 1-(3-(4-(3,4-Difluoro-2-(trifluoromethyl)phenyl)piperidine-1-carbonyl)-4,5-dihydro-1H-pyrazolo[3,4-c]pyridin-6(7H)-yl)ethanone]: in test [4], the “treatment of subject afflicted with AMD” value is reported as “effective to treat the subject” and the “treatment of subject afflicted with Stargardt disease” value was “effective to treat the subject”.

`O=C(c1n[nH]c2c1CNCC2)N1CCC(c2ccc(F)c(F)c2C(F)(F)F)CC1` [Compound 36, (4-(3,4-Difluoro-2-(trifluoromethyl)phenyl)piperidin-1-yl)(4,5,6,7-tetrahydro-1H-pyrazolo[4,3-c]pyridin-3-yl)methanone Trifluoroacetic Acid Salt]: the “bisretinoid accumulation” value in test [1] is recorded as “inhibit bisretinoid accumulation”. The “serum RBP4 reduction” value in test [2] is given as “significant serum RBP4 reduction”. Consider `O=C(c1n[nH]c2c1CCNC2)N1CCC(c2ccc(F)c(F)c2C(F)(F)F)CC1` [Compound 34], for which the “bisretinoid accumulation” value in test [1] is “inhibit bisretinoid accumulation”. Also, in test [2], the “serum RBP4 reduction” value is listed as “significant serum RBP4 reduction”.

On to `O=C(c1n[nH]c2c1CCNC2)N1CCC(c2cccc(F)c2C(F)(F)F)CC1` [Compound 30, (4-(3-Fluoro-2-(trifluoromethyl)phenyl)piperidin-1-yl)(4,5,6,7-tetrahydro-1H-pyrazolo[3,4-c]pyridin-3-yl)methanone Hydrochloride], for which the “bisretinoid accumulation” value in test [1] is on record as “inhibit bisretinoid accumulation”. In test [2], the “serum RBP4 reduction” value was “significant serum RBP4 reduction”.
